{"source": "patent US20250049779A1", "about": "“COMBINATION OF AN A2-ADRENOCEPTOR SUBTYPE C (ALPHA-2C) ANTAGONIST WITH A NOREPINEPHRINE REUPTAKE INHIBITOR FOR THE TREATMENT OF SLEEP APNEA” (Bayer Aktiengesellschaft, priority 2021, published 2025)", "tested_on": "upper airway collapsibility", "test": "pig model of obstructive sleep apnea (OSA): collapse of the upper respiratory tract induced by negative pressure in anaesthetized, spontaneously breathing pigs", "type": "in vivo, German Landrace pigs", "conditions": "for Percent pigs without collaps −150 cm H2O, %: −150 cm H2O (column head; title prints −100)", "description": "The therapeutic potential of the combination of an α2-Adrenoceptor subtype C (alpha-2C) antagonists with a noradrenaline reuptake inhibitor according to the present invention in sleep apnea can be assessed preclinically in a pig model of obstructive sleep apnea (OSA).\nUsing negative pressure, it is possible to induce collapse and thus obstruction of the upper respiratory tract in anaesthetized, spontaneously breathing pigs (Wirth K. J. et al., Sleep 36(5) (2013) pp. 699-708).\nGerman Landrace pigs are used for the model. The pigs are anaesthetized and tracheotomized. Two tracheal cannulas are inserted into the trachea, one into the rostral part and the other into the caudal part of the trachea. Using a connection piece, the rostral cannula is connected to a tube to the negative pressure device and to the distal tracheal cannula. The distal tracheal cannula is additionally connected to a tube with an open end to atmosphere via a connection piece that served for free tracheal breathing, circumventing the upper airway. By appropriate opening and clamping of those tubes breathing can be switched from nasal breathing to breathing through the caudal tracheal cannula, circumventing the upper airway, and the (isolated) upper airway can be connected to the negative pressure device, causing airflow in the inspiratory direction.\nAt certain points in time, the collapsibility of the upper respiratory tract is tested by having the pig breathe via the caudal cannula and applying negative pressures of −50, −100 and −150 cm water head (cm H2O) to the upper respiratory tract. This causes the upper respiratory tract to collapse, which manifests itself in an interruption of the airflow and a pressure drop in the tube system. This test is conducted prior to the administration of the test substance and at certain intervals after the administration of the test substance. An appropriately effective test substance can prevent this collapse of the respiratory tract in the inspiratory phase.", "key": {"[1]": {"conditions": "intravenous bolus 20 μg/kg then infusion 12.5 μg/kg/h for four hours, time 0 min (time of administration)"}, "[2]": {"conditions": "intravenous bolus 20 μg/kg then infusion 12.5 μg/kg/h for four hours, time 10 min"}, "[3]": {"conditions": "intravenous bolus 20 μg/kg then infusion 12.5 μg/kg/h for four hours, time 30 min"}, "[4]": {"conditions": "intravenous bolus 20 μg/kg then infusion 12.5 μg/kg/h for four hours, time 60 min"}, "[5]": {"conditions": "intravenous bolus 20 μg/kg then infusion 12.5 μg/kg/h for four hours, time 120 min"}, "[6]": {"conditions": "intravenous bolus 20 μg/kg then infusion 12.5 μg/kg/h for four hours, time 180 min"}, "[7]": {"conditions": "intravenous bolus 20 μg/kg then infusion 12.5 μg/kg/h for four hours, time 240 min"}}}
{"molecule": "C[C@@H]1CCCN(C2CCN(c3ncc(C(=O)NCc4ncc(F)cc4F)s3)CC2)C1", "note": "[N-[(3,5-difluoropyridin-2-yl)methyl]-2-[(3R)-3-methyl[1,4′-bipiperidin]-1′-yl]-1,3-thiazole-5-carboxamide]", "values": [{"measurement": "inhibited upper airway collapsibility at all negative pressures of −50, −100 and −150 cm head (cm H2O) in all pigs", "setting": "0.01 mg/kg intraduodenal", "value": "at no time point"}, {"measurement": "upper airway collapsibility at the negative pressures of −50 and −100 cm head (cm H2O)", "setting": "0.01 mg/kg intraduodenal, 120 min after administration", "value": "inhibited"}, {"measurement": "upper airway collapsibility at the negative pressure of −50 cm head (cm H2O)", "setting": "0.01 mg/kg intraduodenal, 150 min after administration", "value": "inhibited"}]}
{"molecule": "CNCC[C@@H](Oc1ccccc1C)c1ccccc1", "note": "[atomoxetine]", "values": [{"measurement": "inhibited upper airway collapsibility at all negative pressures of −50, −100 and −150 cm head (cm H2O) in all pigs", "setting": "intravenous bolus 20 μg/kg then infusion 12.5 μg/kg/h for four hours", "value": "at no time"}, {"measurement": "Percent pigs without collaps −50 cm H2O, %", "setting": "[1]", "value": 0, "unit": "%"}, {"measurement": "Percent pigs without collaps −50 cm H2O, %", "setting": "[2]", "value": 0, "unit": "%"}, {"measurement": "Percent pigs without collaps −50 cm H2O, %", "setting": "[3]", "value": 0, "unit": "%"}, {"measurement": "Percent pigs without collaps −50 cm H2O, %", "setting": "[4]", "value": 0, "unit": "%"}, {"measurement": "Percent pigs without collaps −50 cm H2O, %", "setting": "[5]", "value": 0, "unit": "%"}, {"measurement": "Percent pigs without collaps −50 cm H2O, %", "setting": "[6]", "value": 0, "unit": "%"}, {"measurement": "Percent pigs without collaps −50 cm H2O, %", "setting": "[7]", "value": 0, "unit": "%"}, {"measurement": "Percent pigs without collaps −100 cm H2O, %", "setting": "[1]", "value": 0, "unit": "%"}, {"measurement": "Percent pigs without collaps −100 cm H2O, %", "setting": "[2]", "value": 0, "unit": "%"}, {"measurement": "Percent pigs without collaps −100 cm H2O, %", "setting": "[3]", "value": 0, "unit": "%"}, {"measurement": "Percent pigs without collaps −100 cm H2O, %", "setting": "[4]", "value": 0, "unit": "%"}, {"measurement": "Percent pigs without collaps −100 cm H2O, %", "setting": "[5]", "value": 0, "unit": "%"}, {"measurement": "Percent pigs without collaps −100 cm H2O, %", "setting": "[6]", "value": 0, "unit": "%"}, {"measurement": "Percent pigs without collaps −100 cm H2O, %", "setting": "[7]", "value": 0, "unit": "%"}, {"measurement": "Percent pigs without collaps −150 cm H2O, %", "setting": "[1]", "value": 0, "unit": "%"}, {"measurement": "Percent pigs without collaps −150 cm H2O, %", "setting": "[2]", "value": 0, "unit": "%"}, {"measurement": "Percent pigs without collaps −150 cm H2O, %", "setting": "[3]", "value": 0, "unit": "%"}, {"measurement": "Percent pigs without collaps −150 cm H2O, %", "setting": "[4]", "value": 0, "unit": "%"}, {"measurement": "Percent pigs without collaps −150 cm H2O, %", "setting": "[5]", "value": 0, "unit": "%"}, {"measurement": "Percent pigs without collaps −150 cm H2O, %", "setting": "[6]", "value": 0, "unit": "%"}, {"measurement": "Percent pigs without collaps −150 cm H2O, %", "setting": "[7]", "value": 0, "unit": "%"}]}
